# From publication PMC5508980 (Molecular nutrition & food research, 2017)
# Target: recombinant HDAC1 (Homo sapiens, UniProt Q13547)
# Assay: Recombinant HDAC activity assay
# Format: biochemical
# Conditions: 2 h, read-out: % HDAC activity, Class I HDACs, 1
# Chain of recombinant HDAC1 (Q13547 whole entry): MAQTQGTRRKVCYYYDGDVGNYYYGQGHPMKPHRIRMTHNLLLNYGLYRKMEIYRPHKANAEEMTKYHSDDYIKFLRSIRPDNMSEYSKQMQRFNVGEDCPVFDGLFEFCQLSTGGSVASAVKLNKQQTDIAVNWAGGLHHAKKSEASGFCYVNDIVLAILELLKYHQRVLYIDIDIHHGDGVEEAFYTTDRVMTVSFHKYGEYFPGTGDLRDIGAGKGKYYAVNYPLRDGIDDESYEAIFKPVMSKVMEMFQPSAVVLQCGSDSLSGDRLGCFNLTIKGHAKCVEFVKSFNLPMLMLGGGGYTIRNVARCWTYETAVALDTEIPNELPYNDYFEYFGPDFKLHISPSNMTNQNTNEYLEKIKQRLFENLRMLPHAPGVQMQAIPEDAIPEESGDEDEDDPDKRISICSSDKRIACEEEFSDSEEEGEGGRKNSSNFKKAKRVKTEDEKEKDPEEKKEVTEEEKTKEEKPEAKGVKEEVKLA
row,remaining activity at 50 µM,SMILES
1,90%,O=C1c2c(O)cc(O)cc2O[C@H](c2cc(O)c(O)c(O)c2)[C@H]1O [Dihydromyricetin]
2,61.5%,O=C1Nc2ccccc2/C1=C1/Nc2ccccc2C1=O [Indirubin]
3,72.8%,O=c1c(O)c(-c2ccc(O)cc2)oc2cc(O)cc(O)c12 [Kaempferol]

# Target: recombinant HDAC2 (Homo sapiens, UniProt Q92769)
# Assay: Recombinant HDAC activity assay
# Format: biochemical
# Conditions: 2 h, read-out: % HDAC activity, Class I HDACs, 2
# Chain of recombinant HDAC2 (Q92769 whole entry): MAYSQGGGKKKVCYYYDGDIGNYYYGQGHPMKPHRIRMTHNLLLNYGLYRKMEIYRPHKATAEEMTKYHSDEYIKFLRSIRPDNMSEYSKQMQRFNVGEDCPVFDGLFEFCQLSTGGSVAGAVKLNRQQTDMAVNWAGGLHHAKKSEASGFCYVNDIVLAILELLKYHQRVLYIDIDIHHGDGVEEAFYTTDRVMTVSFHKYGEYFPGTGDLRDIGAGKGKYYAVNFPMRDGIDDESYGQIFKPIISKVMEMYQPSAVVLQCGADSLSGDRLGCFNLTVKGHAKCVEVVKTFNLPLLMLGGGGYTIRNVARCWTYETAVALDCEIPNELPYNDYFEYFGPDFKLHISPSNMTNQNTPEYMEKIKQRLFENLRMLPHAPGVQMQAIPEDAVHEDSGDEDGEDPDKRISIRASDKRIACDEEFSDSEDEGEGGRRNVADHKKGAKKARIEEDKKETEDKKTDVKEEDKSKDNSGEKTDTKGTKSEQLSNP
row,remaining activity at 50 µM,SMILES
1,73.9%,O=C1c2c(O)cc(O)cc2O[C@H](c2cc(O)c(O)c(O)c2)[C@H]1O [Dihydromyricetin]
2,58.7%,O=C1Nc2ccccc2/C1=C1/Nc2ccccc2C1=O [Indirubin]
3,71.7%,O=c1c(O)c(-c2ccc(O)cc2)oc2cc(O)cc(O)c12 [Kaempferol]

# Target: recombinant HDAC3 (Homo sapiens, UniProt O15379)
# Assay: Recombinant HDAC activity assay
# Format: biochemical
# Conditions: 2 h, read-out: % HDAC activity, Class I HDACs, 3
# Chain of recombinant HDAC3 (O15379 whole entry): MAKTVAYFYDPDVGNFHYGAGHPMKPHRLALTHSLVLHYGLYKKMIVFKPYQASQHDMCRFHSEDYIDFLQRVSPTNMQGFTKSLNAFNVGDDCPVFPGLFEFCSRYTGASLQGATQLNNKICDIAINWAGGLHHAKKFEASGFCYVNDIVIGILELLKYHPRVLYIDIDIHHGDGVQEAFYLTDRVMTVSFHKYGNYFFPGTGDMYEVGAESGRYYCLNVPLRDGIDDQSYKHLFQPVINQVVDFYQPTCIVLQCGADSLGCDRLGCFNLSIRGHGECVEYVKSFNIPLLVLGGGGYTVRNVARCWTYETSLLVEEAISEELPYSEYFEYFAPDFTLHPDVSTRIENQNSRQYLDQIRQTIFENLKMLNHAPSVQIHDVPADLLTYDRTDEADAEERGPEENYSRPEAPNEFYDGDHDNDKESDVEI
# Chain of recombinant HDAC3 (Q9Y618 395-489 partner limits assumed): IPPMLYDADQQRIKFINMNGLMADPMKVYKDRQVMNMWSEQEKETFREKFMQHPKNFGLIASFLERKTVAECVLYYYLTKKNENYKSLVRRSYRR
row,remaining activity at 50 µM,SMILES
1,82.5%,O=C1c2c(O)cc(O)cc2O[C@H](c2cc(O)c(O)c(O)c2)[C@H]1O [Dihydromyricetin]
2,56.6%,O=C1Nc2ccccc2/C1=C1/Nc2ccccc2C1=O [Indirubin]
3,66.9%,O=c1c(O)c(-c2ccc(O)cc2)oc2cc(O)cc(O)c12 [Kaempferol]

# Target: T1, recombinant HDAC8 (Homo sapiens, UniProt Q9BY41)
# T1 sequence (Q9BY41 1-377): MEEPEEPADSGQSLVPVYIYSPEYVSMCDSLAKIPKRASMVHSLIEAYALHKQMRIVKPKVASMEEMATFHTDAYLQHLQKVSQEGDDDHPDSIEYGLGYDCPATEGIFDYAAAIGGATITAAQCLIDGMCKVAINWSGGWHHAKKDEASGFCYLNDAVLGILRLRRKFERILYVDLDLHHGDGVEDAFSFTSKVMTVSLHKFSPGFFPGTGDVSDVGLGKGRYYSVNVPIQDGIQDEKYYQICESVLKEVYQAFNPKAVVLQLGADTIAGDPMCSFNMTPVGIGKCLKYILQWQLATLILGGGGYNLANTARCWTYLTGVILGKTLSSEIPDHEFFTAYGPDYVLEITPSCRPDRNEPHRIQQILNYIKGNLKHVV
# Assay: Recombinant HDAC activity assay
# Format: biochemical
# Conditions: 2 h, read-out: % HDAC activity, Class I HDACs, 8
row,remaining activity at 50 µM,SMILES
1,81.9%,O=C1c2c(O)cc(O)cc2O[C@H](c2cc(O)c(O)c(O)c2)[C@H]1O [Dihydromyricetin]
2,58.4%,O=C1Nc2ccccc2/C1=C1/Nc2ccccc2C1=O [Indirubin]
3,68.7%,O=c1c(O)c(-c2ccc(O)cc2)oc2cc(O)cc(O)c12 [Kaempferol]

# Target: recombinant HDAC5 (Homo sapiens, UniProt Q9UQL6)
# Assay: Recombinant HDAC activity assay
# Format: biochemical
# Conditions: 2 h, read-out: % HDAC activity, Class IIa HDACs, 5
# Chain of recombinant HDAC5 (Q9UQL6 whole entry): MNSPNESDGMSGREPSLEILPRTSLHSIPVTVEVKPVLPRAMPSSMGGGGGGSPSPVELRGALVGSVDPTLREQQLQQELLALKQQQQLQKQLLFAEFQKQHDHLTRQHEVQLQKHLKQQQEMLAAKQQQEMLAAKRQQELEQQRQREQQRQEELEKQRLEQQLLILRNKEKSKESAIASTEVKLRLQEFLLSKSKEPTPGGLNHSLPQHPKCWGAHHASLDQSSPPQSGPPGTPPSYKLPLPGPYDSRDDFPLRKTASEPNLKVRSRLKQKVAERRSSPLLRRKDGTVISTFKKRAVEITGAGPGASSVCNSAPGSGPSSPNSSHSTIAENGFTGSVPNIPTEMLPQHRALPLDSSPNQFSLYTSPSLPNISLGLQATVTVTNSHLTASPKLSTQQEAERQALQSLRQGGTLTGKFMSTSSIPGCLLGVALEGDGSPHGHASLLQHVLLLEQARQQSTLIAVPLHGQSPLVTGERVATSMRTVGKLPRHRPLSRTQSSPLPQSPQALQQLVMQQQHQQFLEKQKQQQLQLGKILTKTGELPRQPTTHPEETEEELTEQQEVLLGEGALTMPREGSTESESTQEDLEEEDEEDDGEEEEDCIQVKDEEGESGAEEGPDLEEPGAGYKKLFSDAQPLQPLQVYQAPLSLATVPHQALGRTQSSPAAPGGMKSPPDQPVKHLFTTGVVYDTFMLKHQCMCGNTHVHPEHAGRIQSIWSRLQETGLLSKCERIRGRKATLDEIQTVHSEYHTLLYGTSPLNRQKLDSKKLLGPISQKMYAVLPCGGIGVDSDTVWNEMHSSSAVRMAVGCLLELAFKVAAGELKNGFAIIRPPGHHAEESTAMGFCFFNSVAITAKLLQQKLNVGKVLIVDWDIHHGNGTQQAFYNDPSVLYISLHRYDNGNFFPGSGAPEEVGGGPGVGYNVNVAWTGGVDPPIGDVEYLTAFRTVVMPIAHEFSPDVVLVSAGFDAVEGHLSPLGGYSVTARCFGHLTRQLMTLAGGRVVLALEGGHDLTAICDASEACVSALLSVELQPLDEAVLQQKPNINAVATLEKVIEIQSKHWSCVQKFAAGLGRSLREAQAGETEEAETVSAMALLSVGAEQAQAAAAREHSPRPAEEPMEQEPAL
row,remaining activity at 50 µM,SMILES
1,73.4%,O=C1c2c(O)cc(O)cc2O[C@H](c2cc(O)c(O)c(O)c2)[C@H]1O [Dihydromyricetin]
2,73.5%,O=c1c(O)c(-c2ccc(O)cc2)oc2cc(O)cc(O)c12 [Kaempferol]

# Target: T2, recombinant HDAC7 (Homo sapiens, UniProt Q8WUI4)
# T2 sequence (Q8WUI4 1-952): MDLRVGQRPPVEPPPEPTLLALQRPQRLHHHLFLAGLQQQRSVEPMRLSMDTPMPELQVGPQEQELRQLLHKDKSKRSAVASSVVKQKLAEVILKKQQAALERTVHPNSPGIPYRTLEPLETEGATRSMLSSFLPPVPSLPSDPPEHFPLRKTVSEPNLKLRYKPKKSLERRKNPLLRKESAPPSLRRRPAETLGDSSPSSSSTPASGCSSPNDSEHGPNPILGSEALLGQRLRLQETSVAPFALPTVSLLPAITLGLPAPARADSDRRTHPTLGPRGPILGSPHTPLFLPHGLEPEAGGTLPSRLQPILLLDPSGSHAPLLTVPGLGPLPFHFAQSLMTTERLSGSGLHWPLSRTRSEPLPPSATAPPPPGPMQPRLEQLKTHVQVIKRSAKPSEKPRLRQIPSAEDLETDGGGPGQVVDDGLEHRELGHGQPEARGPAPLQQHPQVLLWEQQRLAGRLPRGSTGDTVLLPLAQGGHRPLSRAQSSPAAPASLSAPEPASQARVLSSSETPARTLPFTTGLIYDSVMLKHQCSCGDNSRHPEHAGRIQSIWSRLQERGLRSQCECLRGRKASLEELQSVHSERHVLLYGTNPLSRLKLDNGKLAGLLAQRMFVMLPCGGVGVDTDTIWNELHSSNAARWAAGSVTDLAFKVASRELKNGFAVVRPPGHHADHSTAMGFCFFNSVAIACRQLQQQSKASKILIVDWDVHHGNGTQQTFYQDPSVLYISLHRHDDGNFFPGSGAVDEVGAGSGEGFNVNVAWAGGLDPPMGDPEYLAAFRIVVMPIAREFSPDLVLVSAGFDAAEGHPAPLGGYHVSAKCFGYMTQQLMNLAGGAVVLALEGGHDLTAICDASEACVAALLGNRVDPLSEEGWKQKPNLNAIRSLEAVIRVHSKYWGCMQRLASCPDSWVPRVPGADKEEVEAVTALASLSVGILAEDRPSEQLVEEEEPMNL
# Assay: Recombinant HDAC activity assay
# Format: biochemical
# Conditions: 2 h, read-out: % HDAC activity, Class IIa HDACs, 7
row,remaining activity at 50 µM,SMILES
1,94%,O=C1c2c(O)cc(O)cc2O[C@H](c2cc(O)c(O)c(O)c2)[C@H]1O [Dihydromyricetin]

# Same assay, conditions: recombinant protein incubated with 50 µM compound, 2 hrs
row,"% HDAC activity, Class IIa HDACs, 7",SMILES
1,-,O=C1Nc2ccccc2/C1=C1/Nc2ccccc2C1=O [Indirubin]
2,-,O=c1c(O)c(-c2ccc(O)cc2)oc2cc(O)cc(O)c12 [Kaempferol]

# Target: recombinant HDAC9 (Homo sapiens, UniProt Q9UKV0)
# Assay: Recombinant HDAC activity assay
# Format: biochemical
# Conditions: 2 h, read-out: % HDAC activity, Class IIa HDACs, 9
# Chain of recombinant HDAC9 (Q9UKV0 whole entry): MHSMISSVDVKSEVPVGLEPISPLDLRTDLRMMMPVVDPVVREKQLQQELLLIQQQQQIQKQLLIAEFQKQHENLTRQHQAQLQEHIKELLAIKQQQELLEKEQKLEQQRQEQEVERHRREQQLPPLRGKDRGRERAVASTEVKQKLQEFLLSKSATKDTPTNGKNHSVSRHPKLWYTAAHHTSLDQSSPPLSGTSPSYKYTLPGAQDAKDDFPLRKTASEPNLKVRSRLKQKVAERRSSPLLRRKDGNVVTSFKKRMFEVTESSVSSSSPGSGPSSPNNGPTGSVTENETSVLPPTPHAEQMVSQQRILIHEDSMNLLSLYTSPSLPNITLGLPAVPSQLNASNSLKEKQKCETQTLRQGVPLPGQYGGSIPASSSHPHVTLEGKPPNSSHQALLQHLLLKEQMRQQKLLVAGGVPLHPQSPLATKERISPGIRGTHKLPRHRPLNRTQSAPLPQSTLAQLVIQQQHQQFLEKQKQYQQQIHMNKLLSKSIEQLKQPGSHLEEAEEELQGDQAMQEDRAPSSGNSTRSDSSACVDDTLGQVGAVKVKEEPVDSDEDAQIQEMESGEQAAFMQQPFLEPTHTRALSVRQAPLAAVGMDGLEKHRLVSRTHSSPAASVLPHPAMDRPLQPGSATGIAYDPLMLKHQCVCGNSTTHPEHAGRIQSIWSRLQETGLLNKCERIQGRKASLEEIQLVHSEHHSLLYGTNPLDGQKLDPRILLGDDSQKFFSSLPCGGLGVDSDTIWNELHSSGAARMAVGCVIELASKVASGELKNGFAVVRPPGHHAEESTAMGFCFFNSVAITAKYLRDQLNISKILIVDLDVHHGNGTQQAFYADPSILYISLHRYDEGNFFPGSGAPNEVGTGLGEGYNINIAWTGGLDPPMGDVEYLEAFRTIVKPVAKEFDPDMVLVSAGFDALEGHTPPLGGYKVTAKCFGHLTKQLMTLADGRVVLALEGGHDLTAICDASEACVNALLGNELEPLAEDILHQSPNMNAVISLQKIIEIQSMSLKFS
row,remaining activity at 50 µM,SMILES
1,92.5%,O=C1c2c(O)cc(O)cc2O[C@H](c2cc(O)c(O)c(O)c2)[C@H]1O [Dihydromyricetin]
2,70.6%,O=c1c(O)c(-c2ccc(O)cc2)oc2cc(O)cc(O)c12 [Kaempferol]

# Target: T3, recombinant HDAC6 (Homo sapiens, UniProt Q9UBN7)
# T3 sequence (Q9UBN7 1-1215): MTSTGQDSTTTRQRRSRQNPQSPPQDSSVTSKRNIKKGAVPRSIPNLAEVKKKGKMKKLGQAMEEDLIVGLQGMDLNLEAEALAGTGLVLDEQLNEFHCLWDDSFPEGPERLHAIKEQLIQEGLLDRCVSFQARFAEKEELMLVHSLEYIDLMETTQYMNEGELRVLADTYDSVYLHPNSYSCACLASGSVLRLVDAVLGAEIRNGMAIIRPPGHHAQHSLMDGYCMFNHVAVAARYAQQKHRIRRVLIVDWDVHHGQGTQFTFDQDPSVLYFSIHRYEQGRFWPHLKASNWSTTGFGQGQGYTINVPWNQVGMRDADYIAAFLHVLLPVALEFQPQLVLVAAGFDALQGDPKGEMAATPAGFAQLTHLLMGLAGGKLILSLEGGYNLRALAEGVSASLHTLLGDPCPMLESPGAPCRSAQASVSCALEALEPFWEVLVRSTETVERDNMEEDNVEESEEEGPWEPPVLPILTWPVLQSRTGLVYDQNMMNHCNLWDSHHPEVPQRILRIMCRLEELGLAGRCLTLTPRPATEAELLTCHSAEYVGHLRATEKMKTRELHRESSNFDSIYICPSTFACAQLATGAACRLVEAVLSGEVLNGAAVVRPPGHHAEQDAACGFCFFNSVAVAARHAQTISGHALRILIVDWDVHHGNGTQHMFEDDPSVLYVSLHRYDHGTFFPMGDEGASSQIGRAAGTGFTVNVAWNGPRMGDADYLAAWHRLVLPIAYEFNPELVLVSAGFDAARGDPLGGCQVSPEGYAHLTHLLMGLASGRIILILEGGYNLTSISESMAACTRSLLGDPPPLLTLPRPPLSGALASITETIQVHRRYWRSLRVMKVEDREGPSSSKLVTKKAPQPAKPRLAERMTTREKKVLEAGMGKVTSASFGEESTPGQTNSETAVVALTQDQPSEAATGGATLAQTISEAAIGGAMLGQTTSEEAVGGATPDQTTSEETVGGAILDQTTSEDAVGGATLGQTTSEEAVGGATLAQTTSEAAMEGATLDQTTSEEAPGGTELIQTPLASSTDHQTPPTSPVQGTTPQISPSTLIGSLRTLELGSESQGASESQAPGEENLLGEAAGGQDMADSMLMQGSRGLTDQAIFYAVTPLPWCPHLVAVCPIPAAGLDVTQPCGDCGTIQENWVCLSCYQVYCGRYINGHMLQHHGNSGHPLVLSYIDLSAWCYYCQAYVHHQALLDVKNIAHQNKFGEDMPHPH
# Assay: Recombinant HDAC activity assay
# Format: biochemical
# Conditions: 2 h, read-out: % HDAC activity, Class IIb HDACs, 6
row,remaining activity at 50 µM,SMILES
1,65.7%,O=C1Nc2ccccc2/C1=C1/Nc2ccccc2C1=O [Indirubin]

# Target: T4, recombinant HDAC10 (Homo sapiens, UniProt Q969S8)
# T4 sequence (Q969S8 1-669): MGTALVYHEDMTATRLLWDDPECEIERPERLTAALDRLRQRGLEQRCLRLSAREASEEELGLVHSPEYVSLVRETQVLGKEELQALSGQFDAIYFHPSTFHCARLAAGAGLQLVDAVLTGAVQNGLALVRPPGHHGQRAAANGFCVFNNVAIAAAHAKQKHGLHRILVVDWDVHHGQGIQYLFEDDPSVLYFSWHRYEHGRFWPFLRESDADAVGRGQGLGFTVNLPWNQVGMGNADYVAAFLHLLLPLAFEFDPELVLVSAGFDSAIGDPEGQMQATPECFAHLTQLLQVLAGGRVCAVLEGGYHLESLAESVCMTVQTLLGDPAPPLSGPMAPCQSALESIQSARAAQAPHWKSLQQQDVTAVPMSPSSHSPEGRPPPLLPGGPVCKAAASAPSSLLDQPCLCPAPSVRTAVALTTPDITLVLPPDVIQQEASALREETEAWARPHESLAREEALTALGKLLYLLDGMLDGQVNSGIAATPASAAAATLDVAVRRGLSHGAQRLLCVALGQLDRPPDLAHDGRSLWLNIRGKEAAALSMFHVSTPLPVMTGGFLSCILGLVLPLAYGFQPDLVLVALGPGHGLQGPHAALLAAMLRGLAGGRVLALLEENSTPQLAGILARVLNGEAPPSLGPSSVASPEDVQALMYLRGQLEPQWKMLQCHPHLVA
# Assay: Recombinant HDAC activity assay
# Format: biochemical
# Conditions: 2 h, read-out: % HDAC activity, Class IIb HDACs, 10
row,remaining activity at 50 µM,SMILES
1,86.3%,O=C1c2c(O)cc(O)cc2O[C@H](c2cc(O)c(O)c(O)c2)[C@H]1O [Dihydromyricetin]
2,67%,O=C1Nc2ccccc2/C1=C1/Nc2ccccc2C1=O [Indirubin]
3,71.6%,O=c1c(O)c(-c2ccc(O)cc2)oc2cc(O)cc(O)c12 [Kaempferol]
